Assay results: PubChem BioAssay AID330 (DTP/NCI, 2004)
Where “and” joins values, the source holds several entries; their conditions need not be identical. Equal values may be shown once. Toxic doses and inconclusive results are not listed. Rule for the calls: active = survival T/C of 150% or more; inactive = T/C below 125% in these data.

Test system: P388 leukemia ip, CD2F1 mice, survival T/C
Test: NCI In Vivo Anticancer Drug Screen. Data for tumor model P388 Leukemia (intraperitoneal) in CD2F1 (CDF1) mice
Settings: endpoint: median survival time, higher = longer survival
Procedure, shortened: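 Mice carrying the transplanted tumor received test compound or vehicle. Survival was recorded in each group, and the value is the treated-group measurement divided by that of the vehicle-treated control group.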

[1] = dose: 25.0 mg/kg/injection, schedule: Q01DX009 (ip), vehicle: Klucel (hydroxypropylcellulose) (HPC)
[2] = dose: 50.0 mg/kg/injection, schedule: Q01DX009 (ip), vehicle: Klucel (hydroxypropylcellulose) (HPC)
[3] = dose: 100.0 mg/kg/injection, schedule: Q01DX009 (ip), vehicle: Klucel (hydroxypropylcellulose) (HPC)
[4] = dose: 200.0 mg/kg/injection, schedule: Q01DX009 (ip), vehicle: Klucel (hydroxypropylcellulose) (HPC)
[5] = dose: 50.0 mg/kg/injection, schedule: Q01DX005 (ip), vehicle: saline with Tween-80
[6] = dose: 100.0 mg/kg/injection, schedule: Q01DX005 (ip), vehicle: saline with Tween-80
[7] = dose: 200.0 mg/kg/injection, schedule: Q01DX005 (ip), vehicle: saline with Tween-80
[8] = dose: 12.5 mg/kg/injection, schedule: Q01DX009 (ip), vehicle: Klucel (hydroxypropylcellulose) (HPC)
[9] = dose: 100.0 mg/kg/injection, schedule: Q01DX001 (ip), vehicle: Klucel (hydroxypropylcellulose) (HPC)
[10] = dose: 50.0 mg/kg/injection, schedule: Q01DX009 (ip), vehicle: saline
[11] = dose: 100.0 mg/kg/injection, schedule: Q01DX009 (ip), vehicle: saline
[12] = dose: 50.0 mg/kg/injection, schedule: Q01DX005 (ip), vehicle: Klucel (hydroxypropylcellulose) (HPC)
[13] = dose: 200.0 mg/kg/injection, schedule: Q01DX001 (ip), vehicle: Klucel (hydroxypropylcellulose) (HPC)
[14] = dose: 400.0 mg/kg/injection, schedule: Q01DX001 (ip), vehicle: Klucel (hydroxypropylcellulose) (HPC)
[15] = dose: 100.0 mg/kg/injection, schedule: Q01DX009 (ip), vehicle: saline with Tween-80
[16] = dose: 200.0 mg/kg/injection, schedule: Q01DX009 (ip), vehicle: saline with Tween-80
[17] = dose: 50.0 mg/kg/injection, schedule: Q01DX009 (ip), vehicle: saline with Tween-80

Measured: T/C

CCOC(=O)c1ccc(N=C(C2=C(O)c3ccccc3C2=O)c2ccccc2)cc1
inactive: dose: 25.0 mg/kg/injection, schedule: Q04DX002 (ip), vehicle: saline with Tween-80 92 % of control | dose: 50.0 mg/kg/injection, schedule: Q04DX002 (ip), vehicle: saline with Tween-80 101 % of control | dose: 100.0 mg/kg/injection, schedule: Q04DX002 (ip), vehicle: saline with Tween-80 95 % of control

CCOC(=O)C(CC)Oc1cccc2c1oc1ccccc12 (stereo unspecified)
inactive: [1] 103 % of control | [2] 106 % of control | [3] 101 % of control | [4] 109 % of control

COc1ccc(C(C)(c2cc(C(C)(C)C)c(O)c(C(C)(C)C)c2)n2ccnc2)cc1 (stereo unspecified)
inactive: [5] 98 % of control | [6] 94 % of control | [7] 91 % of control

O=C(Nc1ccc([N+](=O)[O-])cc1)c1c2ccccc2nc2ccccc12
inactive: dose: 50.0 mg/kg/injection, schedule: Q01DX005 (ip), vehicle: suspension in saline 92 % of control | dose: 100.0 mg/kg/injection, schedule: Q01DX005 (ip), vehicle: suspension in saline 100 % of control | dose: 200.0 mg/kg/injection, schedule: Q01DX005 (ip), vehicle: suspension in saline 104 % of control

Cc1nc2sccn2c1C=O
inactive: [8] 109 % of control | [1] 114 % of control | [2] 114 % of control | [9] 97 % of control

C[n+]1[se]c2ccccc2c1Cl
inactive: dose: 3.12 mg/kg/injection, schedule: Q01DX009 (ip), vehicle: Klucel (hydroxypropylcellulose) (HPC) 105 % of control | dose: 6.25 mg/kg/injection, schedule: Q01DX009 (ip), vehicle: Klucel (hydroxypropylcellulose) (HPC) 99 % of control | [8] 99 % of control and 89 % of control

CN(C)C1=NC1(C)C
inactive: [10] 100 % of control | [11] 102 % of control | dose: 200.0 mg/kg/injection, schedule: Q01DX009 (ip), vehicle: saline 91 % of control

Oc1ccc(O)c(-c2c(-c3ccccc3)cc3ccccn23)c1
inactive: [12] 102 % of control | dose: 100.0 mg/kg/injection, schedule: Q01DX005 (ip), vehicle: Klucel (hydroxypropylcellulose) (HPC) 104 % of control | dose: 200.0 mg/kg/injection, schedule: Q01DX005 (ip), vehicle: Klucel (hydroxypropylcellulose) (HPC) 104 % of control

O=C(Cc1ccc(C2=NCCN2)cc1[N+](=O)[O-])c1ccc(C2=NCCN2)cc1
inactive: dose: 0.39 mg/kg/injection, schedule: Q01DX005 (ip), vehicle: saline 97 % of control | dose: 0.79 mg/kg/injection, schedule: Q01DX005 (ip), vehicle: saline 101 % of control | dose: 1.56 mg/kg/injection, schedule: Q01DX005 (ip), vehicle: saline 101 % of control and 87 % of control | dose: 6.25 mg/kg/injection, schedule: Q01DX005 (ip), vehicle: saline 106 % of control and 87 % of control

CC1=CC(=O)C(O)C2(C)C1CC1OC(=O)C(OC(=O)c3ccccc3)C3(O)C4(C)OCC13C2C(O)C4O (stereo unspecified)
inactive: dose: 0.75 mg/kg/injection, schedule: Q01DX005 (ip), vehicle: saline + alcohol 101 % of control | dose: 1.5 mg/kg/injection, schedule: Q01DX005 (ip), vehicle: saline + alcohol 101 % of control | dose: 3.0 mg/kg/injection, schedule: Q01DX005 (ip), vehicle: saline + alcohol 108 % of control | dose: 6.0 mg/kg/injection, schedule: Q01DX005 (ip), vehicle: saline + alcohol 105 % of control

COc1ccc(C(O)c2ccc(OC)c(OC)c2)cc1OC
inactive: dose: 25.0 mg/kg/injection, schedule: Q01DX009 (ip), vehicle: other 100 % of control | dose: 50.0 mg/kg/injection, schedule: Q01DX009 (ip), vehicle: other 100 % of control | dose: 100.0 mg/kg/injection, schedule: Q01DX009 (ip), vehicle: other 96 % of control | dose: 200.0 mg/kg/injection, schedule: Q01DX009 (ip), vehicle: other 89 % of control | dose: 400.0 mg/kg/injection, schedule: Q01DX009 (ip), vehicle: other 89 % of control

C(=C\c1cc2ccc(C3=NCCN3)cc2[nH]1)/c1ccc2cc(C3=NCCN3)[nH]c2c1
inactive: dose: 12.5 mg/kg/injection, schedule: Q01DX005 (ip), vehicle: Klucel (hydroxypropylcellulose) (HPC) 105 % of control | dose: 25.0 mg/kg/injection, schedule: Q01DX005 (ip), vehicle: Klucel (hydroxypropylcellulose) (HPC) 110 % of control | [12] 108 % of control and 110 % of control

CCCc1cccc2c3c([nH]c12)C(CC)(CC(=O)O)OCC3 (stereo unspecified)
inactive: [9] 96 % of control | [13] 96 % of control | [14] 91 % of control

CC1(C)C/C(=C\c2ccc([N+](=O)[O-])cc2)C(=O)c2ccccc21
inactive: [1] 99 % of control | [2] 100 % of control | [3] 99 % of control | [4] 98 % of control | dose: 400.0 mg/kg/injection, schedule: Q01DX009 (ip), vehicle: Klucel (hydroxypropylcellulose) (HPC) 88 % of control

CC(=O)Nc1nc(N(C)C)nc(N(C)C)n1
inactive: dose: 50.0 mg/kg/injection, schedule: Q04DX002 (ip), vehicle: saline 109 % of control | dose: 100.0 mg/kg/injection, schedule: Q04DX002 (ip), vehicle: saline 107 % of control | dose: 200.0 mg/kg/injection, schedule: Q04DX002 (ip), vehicle: saline 114 % of control

CCOCCOc1nc(C)cc(C)c1C#N
inactive: [5] 102 % of control | [6] 105 % of control | [7] 96 % of control

CNS(=O)(=O)c1ccc2c(c1)[nH]c(=S)n2C
inactive: [15] 95 % of control | [16] 90 % of control | dose: 400.0 mg/kg/injection, schedule: Q01DX009 (ip), vehicle: saline with Tween-80 90 % of control

NC1CC2CCCCC2CC1c1ccccc1 (stereo unspecified)
inactive: [9] 91 % of control | [13] 97 % of control | [14] 96 % of control

CC1=C(/C=C/C(C)=C/C=C/C(C)=C/C=C2/CCOC2=O)C(C)(C)CCC1
inactive: dose: 50.0 mg/kg/injection, schedule: Q01DX001 (ip), vehicle: saline with Tween-80 96 % of control | dose: 100.0 mg/kg/injection, schedule: Q01DX001 (ip), vehicle: saline with Tween-80 96 % of control | dose: 200.0 mg/kg/injection, schedule: Q01DX001 (ip), vehicle: saline with Tween-80 100 % of control

NC1=NS(=O)(=O)Nc2nc[nH]c21
inactive: [17] 101 % of control | [15] 100 % of control

O=C(N/N=C/c1ccc(O)cc1O)c1cccnc1
inactive: dose: 12.5 mg/kg/injection, schedule: Q01DX009 (ip), vehicle: olive oil, sesame oil, peanut oil 106 % of control | dose: 25.0 mg/kg/injection, schedule: Q01DX009 (ip), vehicle: olive oil, sesame oil, peanut oil 105 % of control | dose: 50.0 mg/kg/injection, schedule: Q01DX009 (ip), vehicle: olive oil, sesame oil, peanut oil 121 % of control | dose: 50.0 mg/kg/injection, schedule: Q01DX009 (oral), vehicle: saline with Tween-80 108 % of control | dose: 100.0 mg/kg/injection, schedule: Q01DX009 (ip), vehicle: olive oil, sesame oil, peanut oil 102 % of control | dose: 100.0 mg/kg/injection, schedule: Q01DX009 (oral), vehicle: saline with Tween-80 108 % of control | dose: 200.0 mg/kg/injection, schedule: Q01DX009 (oral), vehicle: saline with Tween-80 101 % of control | dose: 400.0 mg/kg/injection, schedule: Q01DX009 (oral), vehicle: saline with Tween-80 105 % of control

COC(=O)c1c(C(=O)Nc2ccc(Cl)cc2)c(C)n(NC(N)=O)c1C
inactive: [5] 95 % of control | [6] 95 % of control | [7] 101 % of control

COc1ccc(C(=O)Nc2c(O)ccc3ccccc23)cc1OC
inactive: [5] 101 % of control | [6] 97 % of control | [7] 100 % of control

OCCCN1CCCCC1CO (stereo unspecified)
active: [16] 150 % of control
inactive: [17] 116 % of control

O=C(Nc1nc2cccnc2s1)C(F)(F)F
inactive: [17] 100 % of control | [15] 97 % of control | [16] 94 % of control

COc1cc(C(=O)C[n+]2ccccc2)ccc1O
inactive: dose: 50.0 mg/kg/injection, schedule: Q04DX003 (ip), vehicle: saline with Tween-80 100 % of control | dose: 100.0 mg/kg/injection, schedule: Q04DX003 (ip), vehicle: saline with Tween-80 100 % of control | dose: 200.0 mg/kg/injection, schedule: Q04DX003 (ip), vehicle: saline with Tween-80 100 % of control

CCCCCCCC/C=C\CCCCCCCC[N+]1([O-])CCOCC1
inactive: [10] 102 % of control | [11] 116 % of control
